Reference: patent US8119614B2, “Substitution derivatives of N6-benzyladenosine, methods of their preparation, their use for preparation of drugs, cosmetic preparations and growth regulators, pharmaceutical preparations, cosmetic preparations and growth regulators containing these compounds” (Ustav Experimentalni Botaniky Akademie Ved Ceske Republiky, priority 2002, dated 2012)
Peptide text beside a SMILES is read from it. * marks the point of attachment. Cbz = O=C(OCc1ccccc1)*; CH2F = FC*

System: HL-60 cells
Assay: HL-60 cell proliferation and viability (FDA/PI staining)
Format: cell-based, human
Settings: 50 μM Z-VAD-FMK with 20 μM 2OH3MeOBAPR, 72 h (FIG. 10)
Protocol: Cell culture. A suspension of human promyelocytic HL-60 cells was cultured in RPMI-1640 medium supplemented with a 10% calf foetal serum and antibiotics in 5% CO2 atmosphere at 37° C. Cells were maintained at density from 1×10^5 to 6×10^5 cells per ml. HL-60 cells were obtained from ECACC.
Cell viability assay. Double staining with fluorescein diacetate (FDA) and propidium iodide (PI) for discrimination of dead and living cells was used. Cells were stained in growing medium with PI at a concentration 10 μg/ml 5 min later FDA was added at a concentration 1 μg/ml. The percentage of dead cells (i.e., red stained cells) was evaluated using fluorescence microscopy (Mlejnek and Kolman 1999).

COC(=O)C[C@H](NC(=O)[C@H](C)NC(=O)[C@@H](NC(=O)OCc1ccccc1)C(C)C)C(=O)CF [Z-VAD-FMK, reference compound] (Cbz-Val-Ala-Asp(OMe)-CH2F)
effect of caspase inhibitor on 2OH3MeOBAPR induced apoptosis and cell death: suppress morphological and biochemical characteristics of apoptosis, however it does not inhibit cell death itself
